Test results as given in ChEMBL document CHEMBL4196051, “Pyrazole-pyrazoline as promising novel antimalarial agents: A mechanistic study” (Eur J Med Chem, 2018).

Columns and labels:
Plasmodium falciparum [1] = test: Antimalarial activity against chloroquine-sensitive Plasmodium falciparum 3D7 infected in red blood cells assessed as reduction in mature schizonts formation after 24 hrs by Giemsa-staining based assay; format: functional, organism-based; settings: 3D7, 24 h
Plasmodium falciparum [2] = test: Antimalarial activity against chloroquine-resistant Plasmodium falciparum RKL9 infected in red blood cells assessed as reduction in mature schizonts formation after 24 hrs by Giemsa-staining based assay; format: functional, organism-based; settings: RKL9, 24 h
[3] = Resistance Index, ratio of EC50 for chloroquine-resistant Plasmodium falciparum RKL9 to EC50 for chloroquine-sensitive Plasmodium falciparum 3D7; format: functional
[4] = Cytotoxicity against African green monkey Vero cells assessed as reduction in cell viability after 72 hrs by MTT assay; format: cell-based; settings: chlorocebus sabaeus
[5] = Selectivity index, ratio of CC50 for African green monkey Vero cells to EC50 for chloroquine-sensitive Plasmodium falciparum 3D7; format: toxicity; settings: read-out: Ratio CC50/EC50
[6] = Selectivity index, ratio of CC50 for African green monkey Vero cells to EC50 for chloroquine-resistant Plasmodium falciparum RKL9; format: toxicity; settings: read-out: Ratio CC50/EC50
Plasmodium falciparum [7] = test: Antimalarial activity against Plasmodium falciparum; format: functional, organism-based
Plasmodium falciparum [8] = test: Antimalarial activity against chloroquine-sensitive Plasmodium falciparum 3D7 infected in red blood cells assessed as reduction in mature schizonts formation after 72 hrs by Giemsa-staining based assay; format: functional, organism-based; settings: 3D7, 72 h
Plasmodium berghei [9] = test: Antimalarial activity against Plasmodium berghei NK65 infected in Swiss albino mouse assessed as reduction in parasitemia at 5 mg/kg, po treated up to day 3 measured at day 4 by Giemsa-staining based microscopic analysis relative to control; format: functional; set-up: scale not given: the % may be the effect or the level left
Plasmodium berghei [10] = test: Antimalarial activity against Plasmodium berghei NK65 infected in Swiss albino mouse assessed as mean survival days at 5 mg/kg, po treated up to day 3 measured over 30 days (reference value: 7.2 days); format: functional
Plasmodium falciparum [11] = test: Antimalarial activity against chloroquine-resistant Plasmodium falciparum W2 after 48 hrs by LDH assay; format: functional, organism-based; settings: W2, 48 h
Heme [12] = test: Inhibition of heme crystal growth
Plasmodium berghei [13] = test: Antimalarial activity against Plasmodium berghei NK65 infected in Swiss albino mouse assessed as reduction in parasitemia at 25 mg/kg, po treated up to day 3 measured at day 4 by Giemsa-staining based microscopic analysis relative to control; format: functional; set-up: scale not given: the % may be the effect or the level left
Plasmodium berghei [14] = test: Antimalarial activity against Plasmodium berghei NK65 infected in Swiss albino mouse assessed as reduction in parasitemia at 50 mg/kg, po treated up to day 3 measured at day 4 by Giemsa-staining based microscopic analysis relative to control; format: functional; set-up: scale not given: the % may be the effect or the level left
Plasmodium berghei [15] = test: Antimalarial activity against Plasmodium berghei NK65 infected in Swiss albino mouse assessed as mean survival days at 25 mg/kg, po treated up to day 3 measured over 30 days (reference value: 7.2 days); format: functional
Plasmodium berghei [16] = test: Antimalarial activity against Plasmodium berghei NK65 infected in Swiss albino mouse assessed as mean survival days at 50 mg/kg, po treated up to day 3 measured over 30 days (reference value: 7.2 days); format: functional
Heme [17] = test: Binding affinity to monomeric heme in DMSO/HEPES buffer solution at pH 7.4 by titration analysis
Heme [18] = test: Binding affinity to monomeric heme in DMSO/HEPES buffer solution at pH 5.6 by titration analysis
mu-oxodimeric heme = test: Binding affinity to mu-oxodimeric heme in 0.1M NaOH solution at pH 5.8 by titration analysis

SMILES	EC50 (Plasmodium falciparum [1]) [µM]	EC50 (Plasmodium falciparum [2]) [µM]	Ratio EC50 [3]	CC50 at 72 h [4] [µM]	selectivity ratio [5]	selectivity ratio [6]	other results
COc1cccc(C2=NN(c3ccc(S(N)(=O)=O)cc3)C(c3cn(-c4ccccc4)nc3-c3ccc(C)cc3)C2)c1OC (configuration not stated)	1.61	1.55	0.97	> 57.4	> 60	> 60	–
COc1ccc(C2=NN(c3ccc(S(N)(=O)=O)cc3)C(c3cn(-c4ccccc4)nc3-c3ccc(F)cc3)C2)cc1 (configuration not stated)	1.65	2.04	1.44	> 53.1	> 56.4	> 56.4	–
Cc1ccc(C2=NN(c3ccc(S(N)(=O)=O)cc3)C(c3cn(-c4ccccc4)nc3-c3ccc(C)cc3)C2)cc1 (configuration not stated)	1.43	1.64	1.14	> 41.5	> 52.8	> 52.8	–
NS(=O)(=O)c1ccc(N2N=C(c3ccc(O)cc3)CC2c2cn(-c3ccccc3)nc2-c2ccc(F)cc2)cc1 (configuration not stated)	1.57	2.02	1.29	32	36.9	36.9	–
NS(=O)(=O)c1ccc(N2N=C(c3ccc(Cl)cc3Cl)CC2c2cn(-c3ccccc3)nc2-c2ccccc2)cc1 (configuration not stated)	4.58	–	–	> 438	> 162	> 162	–
COc1ccc(C2=NN(c3ccc(S(N)(=O)=O)cc3)C(c3cn(-c4ccccc4)nc3-c3ccc(OC)cc3)C2)cc1 (configuration not stated)	2.26	–	–	104	78.9	78.9	–
Clc1ccccc1C(c1ccccc1)(c1ccccc1)n1ccnc1 [CLOTRIMAZOLE]	–	–	–	–	–	–	IC50 (Plasmodium falciparum [7]): 12.9 µM
COc1ccc(/C=C(\C#N)c2nc3ccccc3[nH]2)cc1	–	–	–	–	–	–	IC50 (Plasmodium falciparum [8]): 0.069 µM
CCN(CC)CCCC(C)Nc1ccnc2cc(Cl)ccc12 (configuration not stated) [CHLOROQUINE]	2.97	11.2	–	–	–	–	Activity (Plasmodium berghei [9]): 97.1%; MSD (Plasmodium berghei [10]): 30 days
NS(=O)(=O)c1ccc(N2N=C(c3ccc(F)cc3)CC2c2cn(-c3ccccc3)nc2-c2ccc(F)cc2)cc1 (configuration not stated)	6.36	–	–	> 753	> 212	> 212	–
C[n+]1c2ccc(Br)cc2cc2[nH]c3ccc(Br)cc3c21	–	–	–	–	–	–	IC50 (Plasmodium falciparum [11]): 4 µM
NS(=O)(=O)c1ccc(N2N=C(c3ccc(Br)cc3)CC2c2cn(-c3ccccc3)nc2-c2ccc(F)cc2)cc1 (configuration not stated)	3.08	–	–	49.4	25.9	25.9	–
Clc1ccc(COC(Cn2ccnc2)c2ccc(Cl)cc2Cl)c(Cl)c1 (configuration not stated) [MICONAZOLE]	–	–	–	–	–	–	IC50 (Heme [12]): 21.4 µM
COc1ccc(C2=NN(c3ccc(S(N)(=O)=O)cc3)C(c3cn(-c4ccccc4)nc3-c3ccccc3)C2)cc1 (configuration not stated)	1.42	1.78	1.25	40.2	51.4	51.4	–
Cc1ccc(-c2nn(-c3ccccc3)cc2C2CC(c3ccccc3)=NN2c2ccc(S(N)(=O)=O)cc2)cc1 (configuration not stated)	2.97	–	–	> 162	> 98	> 98	–
NS(=O)(=O)c1ccc(N2N=C(c3ccc(O)cc3)CC2c2cn(-c3ccccc3)nc2-c2ccccc2)cc1 (configuration not stated)	3.05	–	–	> 161	> 98	> 98	–
COc1ccc(C2=NN(c3ccc(S(N)(=O)=O)cc3)C(c3cn(-c4ccccc4)nc3-c3ccc(Cl)cc3)C2)cc1 (configuration not stated)	1.61	2.12	1.31	31.3	33.2	33.2	–
NS(=O)(=O)c1ccc(N2N=C(c3ccc(F)cc3)CC2c2cn(-c3ccccc3)nc2-c2ccccc2)cc1 (configuration not stated)	6.67	–	–	> 807	> 225	> 225	–
NS(=O)(=O)c1ccc(N2N=C(c3ccc(Cl)cc3)CC2c2cn(-c3ccccc3)nc2-c2ccc(Cl)cc2)cc1 (configuration not stated)	2.8	–	–	> 164	> 99	> 99	–
COc1ccc(C2=NN(c3ccc(S(N)(=O)=O)cc3)C(c3cn(-c4ccccc4)nc3-c3ccc(C)cc3)C2)cc1 (configuration not stated)	1.38	1.31	0.94	> 36.6	> 46.8	> 46.8	Activity (Plasmodium berghei [13]): 68.42%; Activity (Plasmodium berghei [14]): 82.49%; MSD (Plasmodium berghei [15]): 13.4 days; MSD (Plasmodium berghei [16]): 19.8 days; log K (Heme [17]): 5.12; log K (Heme [18]): 5.58; log K (mu-oxodimeric heme): 5.19
Cc1ccc(C2=NN(c3ccc(S(N)(=O)=O)cc3)C(c3cn(-c4ccccc4)nc3-c3ccc(F)cc3)C2)cc1 (configuration not stated)	2.23	–	–	> 90.7	> 73.2	> 73.2	–
NS(=O)(=O)c1ccc(N2N=C(c3ccc(Cl)cc3)CC2c2cn(-c3ccccc3)nc2-c2ccccc2)cc1 (configuration not stated)	3.35	–	–	> 207	> 111	> 111	–
